Experimental data from PubChem BioAssay AID1582.
Inconclusive results are not listed.

test system: S. cerevisiae PHO84-LacZ reporter, HDAC inhibition; test: HDAC inhibitors via yeast reporter, S. cerevisiae, PHO84-LacZ (AID 1582)

Row | Compound | EC50 [µM]
1 | COc1cc(C)c2c(=O)cc(-c3ccccc3)oc2c1 | 60
2 | CN(Cc1cnc2nc(N)nc(N)c2n1)c1ccc(C(=O)N[C@@H](CCC(=O)O)C(=O)O)cc1 | 78
3 | CC(C(=O)O)c1ccc(N2Cc3ccccc3C2=O)cc1 (configuration not stated) | 50
4 | c1ccc2[nH]c(-c3cscn3)nc2c1 | 148
5 | N#Cc1ccc2c(c1)N(CCCN1CCC(O)CC1)c1ccccc1S2 | 148
6 | CCC(C)[C@H]1O[C@]2(C=C[C@@H]1C)C[C@@H]1C[C@@H](C/C=C(\C)[C@@H](OC3C[C@H](OC)C(O[C@H]4C[C@H](OC)[C@@H](O)[C@H](C)O4)[C@H](C)O3)[C@@H](C)/C=C/C=C3\CO[C@@H]4[C@H](O)C(C)=C[C@@H](C(=O)O1)[C@]34O)O2 (some centres not stated) | 66
7 | NCCCCN | 125
